In US20230226081A1, “PHARMACEUTICAL FORMULATIONS OF ABIRATERONE ACETATE AND NIRAPARIB” (Janssen Pharmaceutica NV, priority 2020, published 2023):

Experiment: Particle size of the drug substances
Assay type: physicochemical

Row | SMILES | d50 particle size of drug substance
1 | CC(=O)O[C@H]1CC[C@@]2(C)C(=CC[C@@H]3[C@@H]2CC[C@]2(C)C(c4cccnc4)=CC[C@@H]32)C1 [Abiraterone acetate] | 4-5 μm
2 | Cc1ccc(S(=O)(=O)O)cc1.NC(=O)c1cccc2cn(-c3ccc([C@@H]4CCCNC4)cc3)nc12 [niraparib tosylate monohydrate, 2-[4-[(3S)-piperidin-3-yl]phenyl]-2H-indazole-7-carboxamide tosylate monohydrate] | around 50 μm
